Data taken from ChEMBL document CHEMBL6114945, “Cyclic vinyl sulfones activate NRF2 to protect from oxidative stress-induced programmed necrosis” (Bioorg Med Chem Lett, 2025).
Activity calls are given as the source filed them. The calls are words filed in the database; no cut-off is given here. Where a SMILES comes first, the peptide text is derived from it. The star is where a group is joined. Cbz = O=C(OCc1ccccc1)*

Tests used:
[1] = molecular target: T1, Keap1/Nrf2 (Homo sapiens) (UniProt Q16236+Q14145); assay: Inhibition of KEAP1 BTB domain-NRF2 protein-protein interaction in human HeLa cells assessed as upregulation of p-62 mRNA expression at 20 to 40 uM measured after 8 hrs by RT-PCR analysis; format: cell-based; conditions: dose 20-40 µM
[2] = test system: HeLa; assay: Protection against erastin-induced ferroptosis in human HeLa cells assessed as reduction in cell death; format: functional, cell-based
[3] = test system: NCI-H1299; assay: Protection against RSL3-induced ferroptosis in human NCI-H1299 cells assessed as reduction in cell death at 5 to 10 uM preincubated for 6 hrs followed by RSL3 addition and measured after 18 hrs by morphological analysis; format: functional, cell-based; conditions: dose 5-10 µM, time 24.0 hrs
[4] = molecular target: T1, Keap1/Nrf2 (Homo sapiens); assay: Inhibition of KEAP1 BTB domain-NRF2 protein-protein interaction in human HeLa cells assessed as upregulation of HO-1 level at 10 uM measured after 8 to 24 hrs by Western blotting analysis; format: cell-based; conditions: time 8-24 hrs
[5] = molecular target: T1, Keap1/Nrf2 (Homo sapiens); assay: Inhibition of KEAP1 BTB domain-NRF2 protein-protein interaction in human NCI-H1299 cells assessed as upregulation of p-62 expression at 1.25 to 20 uM measured after 18 hrs by Western blot analysis; format: cell-based; conditions: dose 1.25-20 µM
[6] = molecular target: T1, Keap1/Nrf2 (Homo sapiens); assay: Inhibition of KEAP1 BTB domain-NRF2 protein-protein interaction in human HeLa cells assessed as upregulation of NQO1 mRNA expression at 40 uM measured after 4 to 8 hrs by RT-PCR analysis; format: cell-based; conditions: time 4-8 hrs
[7] = molecular target: T1, Keap1/Nrf2 (Homo sapiens); assay: Inhibition of KEAP1 BTB domain-NRF2 protein-protein interaction in human NCI-H1299 cells assessed as upregulation of SLC7A11 expression at 1.25 to 20 uM measured after 18 hrs by Western blot analysis; format: cell-based; conditions: dose 1.25-20 µM
[8] = molecular target: Kelch-like ECH-associated protein 1 (Homo sapiens) (UniProt Q14145); assay: Binding affinity to KEAP1 in human HCT-116 cells assessed as appearance of high molecular weight bands of modified KEAP1 at 2.5 to 40 uM measured after 18 hrs by Western blotting analysis; format: cell-based; conditions: dose 2.5-40 µM
[9] = molecular target: T1, Keap1/Nrf2 (Homo sapiens); assay: Inhibition of KEAP1 BTB domain-NRF2 protein-protein interaction in human NCI-H1299 cells assessed as increase in nuclear localization of NRF2 at 20 uM measured after 18 hrs by immunostaining based microscopic analysis; format: cell-based
[10] = molecular target: T1, Keap1/Nrf2 (Homo sapiens); assay: Inhibition of KEAP1 BTB domain-NRF2 protein-protein interaction in human HeLa cells assessed as upregulation of NRF2 mRNA expression at 20 to 40 uM measured after 4 hrs by RT-PCR analysis; format: cell-based; conditions: dose 20-40 µM
[11] = molecular target: Kelch-like ECH-associated protein 1 (Homo sapiens) (UniProt Q14145); assay: Binding affinity to KEAP1 in human HeLa cells assessed as appearance of high molecular weight bands of modified KEAP1 at 10 uM measured after 4 to 24 hrs by Western blotting analysis; format: cell-based; conditions: time 4-24 hrs
[12] = test system: HCT-116; assay: Cytotoxicity against human HCT-116 cells at 40 uM; format: toxicity, cell-based; conditions: hct-116, 40 µM
[13] = molecular target: T1, Keap1/Nrf2 (Homo sapiens); assay: Inhibition of KEAP1 BTB domain-NRF2 protein-protein interaction in human HeLa cells assessed as upregulation of NRF2 level at 10 uM measured after 8 to 24 hrs by Western blotting analysis; format: cell-based; conditions: time 8-24 hrs
[14] = molecular target: T1, Keap1/Nrf2 (Homo sapiens); assay: Inhibition of KEAP1 BTB domain-NRF2 protein-protein interaction in human HeLa cells assessed as upregulation of NRF2 mRNA expression at 20 to 40 uM measured after 8 hrs by RT-PCR analysis; format: cell-based; conditions: dose 20-40 µM
[15] = molecular target: T1, Keap1/Nrf2 (Homo sapiens); assay: Inhibition of KEAP1 BTB domain-NRF2 protein-protein interaction in human HCT-116 cells assessed as upregulation of NRF2 level at 2.5 to 40 uM measured after 18 hrs by Western blotting analysis; format: cell-based; conditions: dose 2.5-40 µM
[16] = molecular target: T1, Keap1/Nrf2 (Homo sapiens); assay: Inhibition of KEAP1 BTB domain-NRF2 protein-protein interaction in human HeLa cells assessed as upregulation of NQO1 mRNA expression at 20 uM measured after 8 hrs by RT-PCR analysis; format: cell-based
[17] = test system: HeLa; assay: Effect on KEAP1 mRNA expression level in human HeLa cells at 20 to 40 uM measured after 4 to 8 hrs by RT-PCR analysis; format: functional, cell-based; conditions: dose 20-40 µM, time 4-8 hrs
[18] = test system: NCI-H1299; assay: Protection against RSL3-induced ferroptosis in human NCI-H1299 cells at 5 to 10 uM preincubated for 6 hrs followed by RSL3 addition and measured after 18 hrs by crystal violet staining based assay; format: functional, cell-based; conditions: dose 5-10 µM, time 24.0 hrs
[19] = test system: NCI-H1299; assay: Protection against RSL3-induced ferroptosis in human NCI-H1299 cells at 10 uM preincubated for 6 hrs followed by RSL3 addition and measured after 18 hrs by phase contrast microscopy; format: functional, cell-based
[20] = molecular target: T1, Keap1/Nrf2 (Homo sapiens); assay: Inhibition of KEAP1 BTB domain-NRF2 protein-protein interaction in human NCI-H1299 cells assessed as upregulation of GCSc expression at 1.25 to 20 uM measured after 18 hrs by Western blot analysis; format: cell-based; conditions: dose 1.25-20 µM
[21] = molecular target: T1, Keap1/Nrf2 (Homo sapiens); assay: Inhibition of KEAP1 BTB domain-NRF2 protein-protein interaction in human HeLa cells assessed as upregulation of HO-1 level at 40 uM measured after 18 hrs by Western blotting analysis; format: cell-based
[22] = test system: HeLa; assay: Cytotoxicity against human HeLa cells at 40 uM; format: toxicity, cell-based
[23] = molecular target: T1, Keap1/Nrf2 (Homo sapiens); assay: Inhibition of KEAP1 BTB domain-NRF2 protein-protein interaction in human HeLa cells assessed as upregulation of HO-1 mRNA expression at 20 uM measured after 4 to 8 hrs by RT-PCR analysis; format: cell-based; conditions: time 4-8 hrs
[24] = molecular target: T1, Keap1/Nrf2 (Homo sapiens); assay: Inhibition of KEAP1 BTB domain-NRF2 protein-protein interaction in human NCI-H1299 cells assessed as upregulation of HO-1 expression at 1.25 to 20 uM measured after 6 hrs by Western blot analysis; format: cell-based; conditions: dose 1.25-20 µM
[25] = molecular target: T1, Keap1/Nrf2 (Homo sapiens); assay: Inhibition of KEAP1 BTB domain-NRF2 protein-protein interaction in human HeLa cells assessed as upregulation of NRF2 level at 5 to 40 uM measured after 18 hrs by Western blotting analysis; format: cell-based; conditions: dose 5-40 µM
[26] = Inhibition of proteasome-mediated NRF2 degradation in human HeLa cells assessed as increase in NRF2 level at 10 uM measured after 6 hrs by Western blotting analysis; format: toxicity, cell-based
[27] = molecular target: T1, Keap1/Nrf2 (Homo sapiens); assay: Inhibition of KEAP1 BTB domain-NRF2 protein-protein interaction in human HeLa cells assessed as increase in NRF2 level at 50 nM measured after 6 hrs by Western blotting analysis; format: cell-based
[28] = molecular target: T1, Keap1/Nrf2 (Homo sapiens); assay: Inhibition of KEAP1 BTB domain-NRF2 protein-protein interaction in human HCT-116 cells assessed as upregulation of NRF2 level at 2.5 to 20 uM measured after 18 hrs by Western blotting analysis; format: cell-based; conditions: dose 2.5-20 µM
[29] = molecular target: T1, Keap1/Nrf2 (Homo sapiens); assay: Inhibition of KEAP1 BTB domain-NRF2 protein-protein interaction in human HeLa cells assessed as upregulation of HO-1 level at 5 uM measured after 18 hrs by Western blotting analysis; format: cell-based
[30] = test system: A549; assay: Inhibition of KEAP1 mutant-NRF2 protein-protein interaction in human A549 cells assessed as upregulation of HO-1 level at 2.5 to 20 uM measured after 18 hrs by Western blotting analysis; format: cell-based; conditions: dose 2.5-20 µM
[31] = test system: A549; assay: Inhibition of KEAP1 mutant-NRF2 protein-protein interaction in human A549 cells assessed as upregulation of NRF2 level at 2.5 to 20 uM measured after 18 hrs by Western blotting analysis; format: cell-based; conditions: dose 2.5-20 µM
[32] = test system: HCT-116; assay: Cytotoxicity against human HCT-116 cells at >20 uM; format: toxicity, cell-based; conditions: hct-116, 20 µM
[33] = molecular target: T1, Keap1/Nrf2 (Homo sapiens); assay: Inhibition of KEAP1 BTB domain-NRF2 protein-protein interaction in human HeLa cells assessed as upregulation of NRF2 level at 2.5 uM measured after 18 hrs by Western blotting analysis; format: cell-based
[34] = molecular target: T1, Keap1/Nrf2 (Homo sapiens); assay: Inhibition of KEAP1-NRF2 protein-protein interaction in human HeLa cells assessed as increase in NRF2 level at 50 uM measured after 6 hrs by Western blotting analysis; format: cell-based

T1 sequence (Q14145 whole entry, looked up, the tested form may be a part): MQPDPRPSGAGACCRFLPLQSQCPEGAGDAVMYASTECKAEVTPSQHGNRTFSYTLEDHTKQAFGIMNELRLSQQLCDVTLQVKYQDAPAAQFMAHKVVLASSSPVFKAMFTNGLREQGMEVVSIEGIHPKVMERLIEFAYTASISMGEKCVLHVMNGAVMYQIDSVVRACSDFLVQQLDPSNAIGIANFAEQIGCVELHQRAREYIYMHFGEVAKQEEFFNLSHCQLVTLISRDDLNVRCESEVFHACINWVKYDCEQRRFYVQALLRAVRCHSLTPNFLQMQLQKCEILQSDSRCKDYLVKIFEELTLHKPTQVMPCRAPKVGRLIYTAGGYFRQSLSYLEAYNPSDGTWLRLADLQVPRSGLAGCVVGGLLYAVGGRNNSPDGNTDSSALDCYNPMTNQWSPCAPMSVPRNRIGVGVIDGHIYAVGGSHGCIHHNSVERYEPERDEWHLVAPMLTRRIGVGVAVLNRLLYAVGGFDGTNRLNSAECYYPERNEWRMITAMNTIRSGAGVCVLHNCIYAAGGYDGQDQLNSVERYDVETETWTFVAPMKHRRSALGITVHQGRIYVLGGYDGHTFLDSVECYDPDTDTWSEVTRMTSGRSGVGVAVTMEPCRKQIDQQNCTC
T1 sequence (Q16236 whole entry, looked up, the tested form may be a part): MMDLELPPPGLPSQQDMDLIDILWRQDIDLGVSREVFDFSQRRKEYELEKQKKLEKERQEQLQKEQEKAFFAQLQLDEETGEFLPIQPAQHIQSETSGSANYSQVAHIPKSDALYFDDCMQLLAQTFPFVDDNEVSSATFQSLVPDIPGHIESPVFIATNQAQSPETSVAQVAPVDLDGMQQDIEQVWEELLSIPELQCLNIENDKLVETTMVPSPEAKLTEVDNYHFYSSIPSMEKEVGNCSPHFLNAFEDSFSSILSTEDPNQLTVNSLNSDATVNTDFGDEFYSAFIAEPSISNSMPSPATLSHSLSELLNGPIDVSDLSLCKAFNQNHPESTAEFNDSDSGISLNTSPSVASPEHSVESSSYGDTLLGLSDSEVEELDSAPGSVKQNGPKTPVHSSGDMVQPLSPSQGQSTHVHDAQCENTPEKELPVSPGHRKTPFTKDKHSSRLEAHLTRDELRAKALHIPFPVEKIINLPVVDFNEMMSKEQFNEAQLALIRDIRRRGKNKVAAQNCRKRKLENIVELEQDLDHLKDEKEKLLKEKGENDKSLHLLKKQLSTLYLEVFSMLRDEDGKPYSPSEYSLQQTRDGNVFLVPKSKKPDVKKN
Chain of Kelch-like ECH-associated protein 1 (Homo sapiens) (Q14145 whole entry, the tested form may be a part): as the sequence (Q14145 whole entry, looked up, the tested form may be a part) above

SMILES: CC1=C2C(CCS2(=O)=O)c2c(c(O)c3ccccc3c2O)C1 (centres undefined)
- inhibition [1]: Active; Significant Upregulation Observed
- Activity [2]: Active
- Activity [3]: Active; Almost Complete Protection Observed
- inhibition [4]: Active; Most Efficient Effect Was Observed After 8 Hrs
- inhibition [5]: Active
- inhibition [6]: Active; Highly Upregulated
- inhibition [7]: Active
- Activity [8]: Active
- inhibition [9]: Active
- inhibition [10]: inactive
- Activity [11]: Active
- Activity [12]: Non-toxic
- inhibition [13]: Active; Most Efficient Effect Was Observed After 8 Hrs
- inhibition [14]: Active
- inhibition [15]: Active; Stronger Activation Of Nrf2 Observed
- inhibition [16]: Active
- Activity [17]: inactive
- Activity [18]: Active; Almost Complete Protection Observed
- Activity [19]: Active; Slightly More Profound Effect Observed At 10 Um
- inhibition [20]: Active
- inhibition [21]: Active; Most Efficiently Upregulated The Ho-1 Level At 40 Um
- Activity [22]: Non-toxic
- inhibition [23]: Active; Significant Changes Observed
- inhibition [24]: Active
- inhibition [25]: Active; Stronger Activation Of Nrf2 Observed

SMILES: CC(C)C[C@@H](C=O)NC(=O)[C@H](CC(C)C)NC(=O)[C@H](CC(C)C)NC(=O)OCc1ccccc1 [MG-132] (Cbz-Leu-Leu-Leu-aldehyde)
- inhibition (INH) [26]: Active

SMILES: CC1(C)CC[C@]2(C(=O)O)CC[C@]3(C)[C@H](C(=O)C=C4[C@@]5(C)C=C(C#N)C(=O)C(C)(C)[C@@H]5CC[C@]43C)[C@@H]2C1
- inhibition [27]: Active

SMILES: CC1=C2C(CCS2(=O)=O)c2c(O)ccc(O)c2C1 (centres undefined)
- inhibition [28]: Active; Upregulated Nrf2 To A Lesser Degree
- inhibition [29]: Active
- inhibition [30]: inactive
- inhibition [31]: inactive
- Activity [32]: Toxic
- inhibition [33]: Active

SMILES: CC(C)(C)c1cc(O)ccc1O
- inhibition [34]: Active
